Target: Hepatitis C virus serine protease, NS3/NS4A (Hepatitis C virus, UniProt A3EZI9+D2K2A8)
Experiment: Inhibitory concentration evaluated against NS3/4A protease.
Format: protein-complex assay, Hepacivirus hominis

Chain of Hepatitis C virus serine protease, NS3/NS4A (D2K2A8 whole entry): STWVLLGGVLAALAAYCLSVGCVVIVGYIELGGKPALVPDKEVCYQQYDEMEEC
Chain of Hepatitis C virus serine protease, NS3/NS4A (A3EZI9 whole entry): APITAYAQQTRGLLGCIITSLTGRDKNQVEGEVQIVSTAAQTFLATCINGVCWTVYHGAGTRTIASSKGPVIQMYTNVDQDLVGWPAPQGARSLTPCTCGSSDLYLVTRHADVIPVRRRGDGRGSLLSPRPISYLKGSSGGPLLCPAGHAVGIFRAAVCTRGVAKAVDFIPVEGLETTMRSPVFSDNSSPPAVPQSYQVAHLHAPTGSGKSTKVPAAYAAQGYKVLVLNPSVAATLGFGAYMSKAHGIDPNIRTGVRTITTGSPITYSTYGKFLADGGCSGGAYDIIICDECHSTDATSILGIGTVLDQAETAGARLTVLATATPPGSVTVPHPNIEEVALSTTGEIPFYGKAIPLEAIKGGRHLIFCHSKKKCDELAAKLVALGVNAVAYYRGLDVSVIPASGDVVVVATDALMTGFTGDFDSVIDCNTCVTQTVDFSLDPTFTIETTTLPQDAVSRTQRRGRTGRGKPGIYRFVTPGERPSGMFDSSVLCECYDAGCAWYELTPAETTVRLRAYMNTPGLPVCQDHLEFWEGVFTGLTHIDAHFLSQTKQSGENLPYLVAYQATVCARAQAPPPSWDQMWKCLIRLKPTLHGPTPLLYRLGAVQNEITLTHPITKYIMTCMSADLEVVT

| IC50 [µM] | Structure (SMILES) |
| --- | --- |
| > 200 | CC(C)C[C@H](NC(=O)Cn1nc(-c2ccccc2)c2ccccc2c1=O)C(=O)N[C@@H](CC(F)F)C(=O)C(=O)O |
| > 200 | CC(C)C[C@H](NC(=O)Cn1c(-c2ccccc2)nc2ccccc21)C(=O)N[C@@H](CC(F)F)C(=O)C(=O)O |
| 41 | CC(C)C[C@H](NC(=O)[C@H](O)c1ccccc1Cl)C(=O)N[C@@H](CC(F)F)C(=O)C(=O)O |
| 7 | CC(C)C[C@H](NC(=O)C(Sc1ccccc1)c1ccccc1)C(=O)N[C@@H](CC(F)F)C(=O)C(=O)O (some centres not stated) |
| > 200 | CC(C)C[C@H](NC(=O)CC(c1ccccc1)c1ccccc1)C(=O)N[C@@H](CC(F)F)C(=O)C(=O)O |
| 13 | CC(C)C[C@H](NC(=O)[C@H](O)c1ccc(Cl)cc1)C(=O)N[C@@H](CC(F)F)C(=O)C(=O)O |
| 18 | CC(C)C[C@H](NC(=O)[C@H](O)c1cccs1)C(=O)N[C@@H](CC(F)F)C(=O)C(=O)O |
| > 200 | COc1ccc(C(=O)N[C@@H](CC(C)C)C(=O)N[C@@H](CC(F)F)C(=O)C(=O)O)c(OC)c1OC |
| > 30 | CC(C)C[C@H](NC(=O)C(Cc1ccccc1)c1ccccc1)C(=O)N[C@@H](CC(F)F)C(=O)C(=O)O (some centres not stated) |
| 18 | COc1ccc(C(Oc2ccccc2)C(=O)N[C@@H](CC(C)C)C(=O)N[C@@H](CC(F)F)C(=O)C(=O)O)cc1 (some centres not stated) |
| > 100 | CC(C)C[C@H](NC(=O)[C@@H](O)c1ccccc1)C(=O)N[C@@H](CC(F)F)C(=O)C(=O)O |
| 0.38 | CC(C)C[C@H](NC(=O)[C@@H](NC(=O)OC(C)(C)C)C1CCCC1)C(=O)N[C@@H](CC(F)F)C(=O)C(=O)O |
| 28 | CC(C)C[C@H](NC(=O)[C@H](O)c1ccc(C(F)(F)F)cc1)C(=O)N[C@@H](CC(F)F)C(=O)C(=O)O |
| 13 | COc1ccc([C@@H](O)C(=O)N[C@@H](CC(C)C)C(=O)N[C@@H](CC(F)F)C(=O)C(=O)O)cc1 |
| > 200 | CC(C)C[C@H](NC(=O)c1cccc(Oc2ccccc2)c1)C(=O)N[C@@H](CC(F)F)C(=O)C(=O)O |
| 7 | CC(C)C[C@H](NC(=O)[C@H](O)C1CCCCC1)C(=O)N[C@@H](CC(F)F)C(=O)C(=O)O |
| 3 | CC(C)C[C@H](NC(=O)[C@H](O)c1ccccc1)C(=O)N[C@@H](CC(F)F)C(=O)C(=O)O |

Reference: ChEMBL document CHEMBL1136041, “Capped dipeptide alpha-ketoacid inhibitors of the HCV NS3 protease” (Bioorg Med Chem Lett, 2002)
